Earlier results in US4280953A, “Glycosylated analogs of somatostatin” (The Salk Institute for Biological Studies, priority 1979, dated 1981).
Non-standard residues stand in square brackets, D forms with d.

System: secretion of insulin, glucogon pancreatic polypeptide and gastrin
Details: human subjects, subcutaneous administration

For “H-CFF[dW]KTFC-OH (cysteine pairing not given here)”, the “inhibitory activity on the secretion of insulin, glucogon pancreatic polypeptide and gastrin” value is listed as “prolonged inhibitory activity”.
